Experiments:
[1] = Solubility determination of crystal form C of tromethamine salt; assay type: physicochemical; details: 37 °C, thermodynamic from solid
Procedure: 1 to 2 mg of compound 28 was weighed into a 1.5 mL liquid phase vial, then 1 mL of pH buffer, artificial simulated gastric fluid (FaSSGF), artificial fasted-state simulated intestinal fluid (FaSSIF), artificial non-fasted-state simulated intestinal fluid (FeSSIF), and pure water were respectively added, and the mixture was placed on a constant temperature oscillator overnight at a temperature of 37 degrees. After 24 h, the sample solution was filtered with a 0.45 μm mixed water fiber filter membrane and then the filtrate was taken. The content was tested by HPLC. For the HPLC detection method, please refer to the solution stability analysis method in Section 1.2.

[2] = Thermodynamic stability experiment of crystal form (slurrying in solvents); assay type: physicochemical
Procedure: Through polycrystalline screening test, the relatively thermodynamically stable crystal form of salt was found.
The mixture was slurried at 40 degrees for 2 days, and centrifuged, and the solid was oven-dried in vacuo at 40 degrees overnight, and then XRD and other corresponding characterizations were performed.

SMILES: O=C(O)c1ccc2nc(CN3CCC(c4cccc5c4OC(c4ccc(Cl)cc4F)C=C5)CC3)n(CC3CCO3)c2c1 (centres unmarked)
- solubility at 24 h ([1]; aqueous buffer, USP Buffer pH 7.4, 37 degrees): 254 µg/mL
- solubility at 24 h ([1]; FaSSIF, 37 degrees): 478 µg/mL
- solubility at 24 h ([1]; FeSSIF, 37 degrees): 756 µg/mL
- solubility at 24 h ([1]; water, H2O, 37 degrees): 66.4 µg/mL
- XRD after slurrying for 2 days ([2]; EA 200 ul, 40 degrees): Crystal form C
- XRD after slurrying for 2 days ([2]; EtOH 200 ul, 40 degrees): Crystal form C
- XRD after slurrying for 2 days ([2]; Heptane 200 ul, 40 degrees): Crystal form C
- XRD after slurrying for 2 days ([2]; IPA 200 ul, 40 degrees): Crystal form C
- XRD after slurrying for 2 days ([2]; IPAC 200 ul, 40 degrees): Crystal form C
- XRD after slurrying for 2 days ([2]; IPE 200 ul, 40 degrees): Crystal form C
- XRD after slurrying for 2 days ([2]; MTBE 200 ul, 40 degrees): Crystal form C
- XRD after slurrying for 2 days ([2]; hexane 200 ul, 40 degrees): Crystal form C
- Stability of crystal form (in words) ([2]; slurried in solvents at 40 degrees for 2 days): very stable
- Phenomenon after slurrying for 2 days ([2]; water 200 ul, 10 mg, 40 degrees): Dissolved clarification

Reference: US20260226046A1 (JIANGSU HANSOH PHARMACEUTICAL GROUP CO., LTD., priority 2023, published 2026)
